The record followed here is patent publication US5955495A, “Method of treating diseases of the CNS” (Hoffmann-La Roche Inc., priority 1997, dated 1999).

One assay has as its target T1, 5-HT2A receptor (Homo sapiens, UniProt P28223).
T1 construct: expressed in transfected cells
The assay can be described thus: [3H]-DOB binding assay (method b), affinity to the 5-HT2A receptor. As to conditions: Ki from IC50 in nM, read-out: Pki (Pki=-log10 Ki), 5-HT2A, Method b (converted). How it is done:
(§1) The binding of compounds of formula I in accordance with the invention to selected serotonin […] was determined in vitro by standard methods. The preparations were investigated in accordance with the tests given hereinafter:
b) Affinity to the 5-HT2A receptor in accordance with the [3H]- DOB binding assay according to the method of T. Branchek et. al., Molecular Pharmacology 38, 604-609 (1990).
(§2) The Pki values (Pki=-log10 Ki) of the test substances are given. The Ki value is defined by the following formula: [formula] with the IC50 values being those concentrations of test compounds in nM at which 50% of the receptor-bonded ligands are displaced. [L] is the ligand concentration and the KD value is the dissocation constant of the ligand.

The target of assay [1] is T2, 5-HT2C receptor (Rattus norvegicus, UniProt P08909).
T2 sequence (P08909 33-460): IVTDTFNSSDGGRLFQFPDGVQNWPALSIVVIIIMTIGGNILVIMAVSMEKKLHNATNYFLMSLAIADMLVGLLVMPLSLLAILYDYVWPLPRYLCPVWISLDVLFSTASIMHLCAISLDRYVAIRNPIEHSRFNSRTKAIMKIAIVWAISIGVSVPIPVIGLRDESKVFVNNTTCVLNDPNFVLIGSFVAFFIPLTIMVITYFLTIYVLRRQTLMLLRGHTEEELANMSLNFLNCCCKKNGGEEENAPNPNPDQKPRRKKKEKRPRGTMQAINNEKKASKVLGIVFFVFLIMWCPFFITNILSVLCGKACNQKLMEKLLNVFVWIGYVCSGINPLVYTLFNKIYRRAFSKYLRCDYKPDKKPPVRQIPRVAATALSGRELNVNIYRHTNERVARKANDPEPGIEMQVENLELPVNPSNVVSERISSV
The assay can be described thus: Penile erection (rats). Conditions: po, 0.75 h, p.o., erections within 45 minutes following administration, read-out: ID50 (mg/kg) (p.o.), penile erection. Also on record: following the administration of the test substance to the animals; from tissue; host or cells: whole living rat (in vivo). Format: in vivo. How it is done:
It has been shown that penile erection is dependent on the stimulation of 5HT2C receptors (see Berendsen & Broekkamp, Eur. J. Pharm., 135, 179-184 (1987).
The number of penile erections was determined within 45 minutes following the administration of the test substance to the animals. The ED50 is the dosage which causes 50% of these erections.

Assay [2] deals with T2, 5-HT2C receptor. The assay can be described thus: [3H]-5-HT binding assay (method a), affinity to the 5-HT2C receptor. Also on record: expressed in transfected cells. As to conditions: Ki from IC50 in nM, read-out: Pki (Pki=-log10 Ki), 5-HT2C, Method a (converted). The protocol: as §1
a) Affinity to the 5-HT2C receptor in accordance with the [3H]-5-HT binding assay according to the method of S.J. Peroutka et al., Brain Research 584, 191-196 (1992).
as §2

T1 sequence (P28223 whole entry): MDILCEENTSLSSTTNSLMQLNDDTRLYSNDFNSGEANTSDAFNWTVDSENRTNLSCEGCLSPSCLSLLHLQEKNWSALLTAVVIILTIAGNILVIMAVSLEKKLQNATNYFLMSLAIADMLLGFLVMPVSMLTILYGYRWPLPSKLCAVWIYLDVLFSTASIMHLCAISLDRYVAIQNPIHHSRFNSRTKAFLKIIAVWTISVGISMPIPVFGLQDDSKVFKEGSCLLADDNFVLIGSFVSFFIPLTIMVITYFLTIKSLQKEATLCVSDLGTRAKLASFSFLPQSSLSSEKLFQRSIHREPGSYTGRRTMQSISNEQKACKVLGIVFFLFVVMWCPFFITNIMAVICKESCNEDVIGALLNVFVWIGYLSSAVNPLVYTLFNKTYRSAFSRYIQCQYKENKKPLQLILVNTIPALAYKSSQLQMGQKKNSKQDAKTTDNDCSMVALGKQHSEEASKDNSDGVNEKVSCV

In the case of `N=C(N)c1cc2ccccc2o1` [H H H H H, benzofuran-2-carboxamidine], the results for the Ki on 5-HT2A receptor and on 5-HT2C receptor [2] were 5010 nM and 79.4 nM, respectively. Also, the ED50 at 5-HT2C receptor [1] is 5 mg/kg.

By Ki is commonly meant a dissociation constant, usually derived from enzyme kinetics or from competition with a known ligand.
